Results reported in ChEMBL document CHEMBL1201862, “PubChem BioAssay data set” (2004).
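Results reflect a 48-hour exposure of cells in 96-well plates to compound at five concentrations. Here, GI50 denotes the concentration required for 50% inhibition of growth.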 Calls of active or inactive are those of the source. No stated cut-off is given here; in the data, active = GI50 up to about 1.1 µM and inactive = higher.

Tests used:
Test in all cases: inhibition of tumour cell growth, NCI panel, 48 h
[1] = system: 786-0
[2] = system: CAKI-1
[3] = system: CCRF-CEM
[4] = system: COLO 205
[5] = system: HCT-116
[6] = system: HCT-15
[7] = system: HL-60
[8] = system: Hs-578T
[9] = system: K562
[10] = system: KM12
[11] = system: MDA-MB-231
[12] = system: NCI-H226
[13] = system: NCI/ADR-RES
[14] = system: OVCAR-4
[15] = system: SF-268
[16] = system: SK-MEL-5
[17] = system: SNB-19
[18] = system: T47D
[19] = system: U-251
[20] = system: UO-31

| SMILES | GI50 [1] | GI50 [2] | GI50 [3] | GI50 [4] | GI50 [5] | GI50 [6] [µM] | GI50 [7] | GI50 [8] | GI50 [9] | GI50 [10] | GI50 [11] | GI50 [12] | GI50 [13] | GI50 [14] | GI50 [15] | GI50 [16] | GI50 [17] | GI50 [18] | GI50 [19] | GI50 [20] |
| --- | --- | --- | --- | --- | --- | --- | --- | --- | --- | --- | --- | --- | --- | --- | --- | --- | --- | --- | --- | --- |
| O=C1OC(c2ccccc2)=N/C1=C\c1ccc(N(CCCl)CCCl)cc1 | > 94 µM (inactive) | > 100 µM (inactive) | 26 µM (inactive) | > 100 µM (inactive) | > 100 µM (inactive) | > 100 | 45.4 µM (inactive) | > 100 µM (inactive) | 16.5 µM (inactive) | > 92.3 µM (inactive) | > 100 µM (inactive) | > 100 µM (inactive) | > 85.1 µM (inactive) | > 100 µM (inactive) | > 88.7 µM (inactive) | > 100 µM (inactive) | > 100 µM (inactive) | 14.5 µM (inactive) | > 100 µM (inactive) | > 78.3 µM (inactive) |
| CCOc1nc2c(N3CCCC3)nc(N3CCNCC3)nc2nc1NCc1ccccc1 | 1.39 µM (inactive) | 1.85 µM (inactive) | 1.26 µM (inactive) | 0.574 µM (active) | 0.923 µM (active) | 1.63 | 1.4 µM (inactive) | 1.72 µM (inactive) | 1.2 µM (inactive) | 1.34 µM (inactive) | 1.45 µM (inactive) | 1.65 µM (inactive) | 2.77 µM (inactive) | 2.42 µM (inactive) | 1.56 µM (inactive) | 1.41 µM (inactive) | 1.51 µM (inactive) | 1.46 µM (inactive) | 1.17 µM (inactive) | 1.32 µM (inactive) |
| COC(=O)/C=C(\S/C=C(/c1ccccc1)N1CCn2c(C(=O)c3ccccc3)c(C(=O)OC)c(C(=O)OC)c21)C(=O)OC | 1.66 µM (inactive) | 4.04 µM (inactive) | 0.733 µM (active) | 1.99 µM (inactive) | 2.34 µM (inactive) | 2.6 | 0.531 µM (active) | > 10 µM (inactive) | 3.53 µM (inactive) | > 10 µM (inactive) | 2.69 µM (inactive) | > 10 µM (inactive) | 3.52 µM (inactive) | 2.81 µM (inactive) | – | > 10 µM (inactive) | > 10 µM (inactive) | 2.92 µM (inactive) | 3.93 µM (inactive) | – |
| N=c1sc(N2CCOCC2)nn1CC(=O)c1ccccc1 | > 100 µM (inactive) | > 100 µM (inactive) | > 100 µM (inactive) | > 100 µM (inactive) | > 100 µM (inactive) | > 100 | > 100 µM (inactive) | > 100 µM (inactive) | > 100 µM (inactive) | > 100 µM (inactive) | > 100 µM (inactive) | > 100 µM (inactive) | > 100 µM (inactive) | > 100 µM (inactive) | > 100 µM (inactive) | > 100 µM (inactive) | > 100 µM (inactive) | 76.4 µM (inactive) | > 100 µM (inactive) | > 100 µM (inactive) |
| CN1CCN(C(=O)c2cn(Cc3cncn3Cc3ccc4c(c3)OCO4)cc2-c2cccc3ccccc23)CC1 | 20.9 µM (inactive) | 20.5 µM (inactive) | 4.71 µM (inactive) | 14.7 µM (inactive) | 4.89 µM (inactive) | 17 | 0.337 µM (active) | 23.2 µM (inactive) | 3.32 µM (inactive) | 0.782 µM (active) | 9.25 µM (inactive) | 58.1 µM (inactive) | 28.2 µM (inactive) | 22.3 µM (inactive) | 18.5 µM (inactive) | 9.04 µM (inactive) | 14.3 µM (inactive) | 15.7 µM (inactive) | 7.73 µM (inactive) | 7.66 µM (inactive) |
| CCCCc1ccc(Nc2nc3c(ncn3C3OC(COC(C)=O)C(OC(C)=O)C3OC(C)=O)c(=O)[nH]2)cc1 (centres undefined) | 17.2 µM (inactive) | > 100 µM (inactive) | 16.3 µM (inactive) | 17.6 µM (inactive) | 17.1 µM (inactive) | > 100 | 26.2 µM (inactive) | 22.9 µM (inactive) | 15.1 µM (inactive) | 18.4 µM (inactive) | 16.7 µM (inactive) | 21.1 µM (inactive) | > 100 µM (inactive) | 21.9 µM (inactive) | 19.4 µM (inactive) | 17.4 µM (inactive) | 27.7 µM (inactive) | 13.7 µM (inactive) | 21 µM (inactive) | > 100 µM (inactive) |
| CCN(CC)CCSc1c(C(C)=O)c(=O)n(-c2ccccc2)c(=S)n1-c1ccccc1 | 1.8 µM (inactive) | 10.2 µM (inactive) | 0.571 µM (active) | 1.8 µM (inactive) | 2.28 µM (inactive) | 2.8 | 2.52 µM (inactive) | 23.4 µM (inactive) | 3.09 µM (inactive) | 17.2 µM (inactive) | 13.1 µM (inactive) | > 40.3 µM (inactive) | 22.2 µM (inactive) | 9.1 µM (inactive) | 15.8 µM (inactive) | 13.8 µM (inactive) | 21.1 µM (inactive) | 2.58 µM (inactive) | 17.7 µM (inactive) | 1.96 µM (inactive) |
| Cn1c(=O)c2c(nc3n(Cc4ccccc4)c(=O)c(NCCBr)cn23)n(C)c1=O | 19.3 µM (inactive) | 18.5 µM (inactive) | 45.5 µM (inactive) | 49.1 µM (inactive) | 28.8 µM (inactive) | 34.8 | 38.8 µM (inactive) | 29 µM (inactive) | 46 µM (inactive) | 63.5 µM (inactive) | 26.5 µM (inactive) | 19.9 µM (inactive) | 21.8 µM (inactive) | 16.3 µM (inactive) | 25.8 µM (inactive) | 26.2 µM (inactive) | 30.4 µM (inactive) | 21.1 µM (inactive) | 30.4 µM (inactive) | 13 µM (inactive) |
| CC1(CCCC2(C)CCNC2=O)OCCO1 (centres undefined) | > 10 µM (inactive) | > 10 µM (inactive) | > 10 µM (inactive) | > 10 µM (inactive) | > 10 µM (inactive) | > 10 | > 10 µM (inactive) | > 10 µM (inactive) | > 10 µM (inactive) | > 10 µM (inactive) | > 10 µM (inactive) | > 10 µM (inactive) | > 10 µM (inactive) | > 10 µM (inactive) | > 10 µM (inactive) | > 10 µM (inactive) | > 10 µM (inactive) | > 10 µM (inactive) | > 10 µM (inactive) | > 10 µM (inactive) |
| CC(C)(C)OC(=O)NCC(C#N)CNC(=O)OC(C)(C)C | > 100 µM (inactive) | > 10 µM (inactive) | > 100 µM (inactive) | > 100 µM (inactive) | > 100 µM (inactive) | > 100 | > 100 µM (inactive) | > 100 µM (inactive) | > 100 µM (inactive) | > 100 µM (inactive) | > 100 µM (inactive) | > 100 µM (inactive) | > 100 µM (inactive) | > 100 µM (inactive) | > 100 µM (inactive) | > 100 µM (inactive) | > 100 µM (inactive) | > 100 µM (inactive) | > 100 µM (inactive) | > 100 µM (inactive) |
| Clc1ccc(-c2nnc(-c3cccc4ccccc34)o2)cc1Cl | > 100 µM (inactive) | > 100 µM (inactive) | > 100 µM (inactive) | > 100 µM (inactive) | > 100 µM (inactive) | > 100 | 1.03 µM (active) | > 100 µM (inactive) | > 100 µM (inactive) | > 100 µM (inactive) | > 100 µM (inactive) | > 100 µM (inactive) | > 100 µM (inactive) | 98.4 µM (inactive) | > 100 µM (inactive) | > 100 µM (inactive) | > 100 µM (inactive) | > 100 µM (inactive) | > 100 µM (inactive) | > 100 µM (inactive) |
| COc1ccc(OCC(=N/NC(=O)c2ccncc2)/N=C/c2ccncc2)cc1 | > 100 µM (inactive) | > 100 µM (inactive) | > 100 µM (inactive) | 74 µM (inactive) | 83.9 µM (inactive) | 51.5 | 57.9 µM (inactive) | > 100 µM (inactive) | 57.9 µM (inactive) | 60 µM (inactive) | > 100 µM (inactive) | 67.5 µM (inactive) | 77.6 µM (inactive) | > 100 µM (inactive) | > 100 µM (inactive) | – | > 100 µM (inactive) | > 100 µM (inactive) | > 100 µM (inactive) | – |
| CCCC1C(C#N)(C#N)C(C#N)=C(N)C1(C)C(C)=O (centres undefined) | 53.3 µM (inactive) | 10.1 µM (inactive) | > 100 µM (inactive) | 65 µM (inactive) | 73.1 µM (inactive) | 29.2 | 31.8 µM (inactive) | > 100 µM (inactive) | 37.3 µM (inactive) | > 100 µM (inactive) | > 100 µM (inactive) | 43.7 µM (inactive) | > 100 µM (inactive) | – | > 100 µM (inactive) | 65.2 µM (inactive) | > 100 µM (inactive) | 59 µM (inactive) | > 100 µM (inactive) | > 100 µM (inactive) |
| CC1C(=O)OC2CC[N+]3([O-])CC=C(COC(=O)C(C)(O)C1(C)O)C23 (centres undefined) | > 100 µM (inactive) | > 100 µM (inactive) | > 100 µM (inactive) | > 100 µM (inactive) | > 100 µM (inactive) | > 100 | > 100 µM (inactive) | > 100 µM (inactive) | > 100 µM (inactive) | > 100 µM (inactive) | > 100 µM (inactive) | > 100 µM (inactive) | > 100 µM (inactive) | > 100 µM (inactive) | > 100 µM (inactive) | > 100 µM (inactive) | > 100 µM (inactive) | > 100 µM (inactive) | > 100 µM (inactive) | – |
